Measured values reported in patent US7109193B2, “Tricyclic diazepines tocolytic oxytocin receptor antagonists” (Wyeth, priority 2001, dated 2006).

Target: T1, human oxytocin receptor (Homo sapiens, UniProt P30559)
T1 construct: host or cells: CHO cells (pcDNA3.1 vector)
T1 sequence (P30559 1-389): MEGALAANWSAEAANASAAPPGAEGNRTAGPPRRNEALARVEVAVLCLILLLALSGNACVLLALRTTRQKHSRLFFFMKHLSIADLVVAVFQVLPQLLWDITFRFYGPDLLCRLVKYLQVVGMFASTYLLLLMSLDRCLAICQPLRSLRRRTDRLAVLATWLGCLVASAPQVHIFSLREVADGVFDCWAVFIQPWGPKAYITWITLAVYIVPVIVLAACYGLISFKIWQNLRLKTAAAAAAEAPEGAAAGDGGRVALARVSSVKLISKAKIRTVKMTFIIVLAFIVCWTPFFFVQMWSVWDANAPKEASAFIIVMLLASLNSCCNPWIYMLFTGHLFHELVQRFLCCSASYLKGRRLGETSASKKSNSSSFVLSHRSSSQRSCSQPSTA
Test: Oxytocin binding in Chinese Hamster Ovary cell membranes expressing human oxytocin receptors
Details: 100 nM, CHO cell membranes, [3H]oxytocin, values without parentheses; for inhibition at 0.1 µM: read-out: OT % inhibition @ 100% nM
Description: Oxytocin Binding in Chinese Hamster Ovary Cell Membranes Expressing Human Oxytocin Receptors
The trypsin is removed by aspiration and the cells dislodged by tapping. Cell Culture medium (e.g. 30 mL for 1:30 split) is immediately added and mixed well to inactivate trypsin. 1 mL of detached cells is added to new culture flasks containing fresh Cell Culture medium (e.g. into 25 mL per T-150 flask), and mixed gently. The cells are incubated at 37° C. in 5% CO2. The medium is changed at 3 to 4 days interval (or as appropriate). […] All steps are done under sterile conditions. B. Membrane Preparation: The cells are washed twice gently with Hank's Balanced Salt solution (e.g., use 10 mL per T-150 flask). […] The contents are transferred to centrifuge tubes (50 mL size) kept in ice bath. All subsequent steps are done at 4° C. The tubes are centrifuged at 300×g for 15 min (1380 rpm on SORVAL, Model RT6000D, using rotor for 50 mL tubes). The supernatant is discarded and the cells suspended in homogenizing buffer (10 mM Tris-HCl containing 0.25 M sucrose and 1 mM EDTA, pH 7.4) ensuring that the volume of the buffer is about ten times the volume of the cell pellet. The cells are pooled into a centrifuge tube (50 mL) and homogenized with a Polytron at setting 6 for 10 sec. The homogenate is transferred into a Potter-Elvjehm homogenizer and homogenized with 3 strokes. The homogenate is centrifuged at 1500×g for 10 min at 4° C. (3100 rpm using SORVAL, model RT6000D, using rotor for 50 mL tubes). The pellet is discarded. The supernatant is centrifuged at 100,000×g for 60 min. at 4° C. (Beckman L8-80M ultracentrifuge; spin at 37,500 rpm with rotor type 70 Ti for 50 mL tubes; 38,000 rpm with type 80Ti for 15 mL tubes; or 35,800 rpm with rotor type 45Ti). The supernantant is discarded and the pellet suspended in 3 to 4 mL of Tris buffer (50 mM TRIS-HCl, pH 7.4). The protein content is estimated by the Bradford or Lowry method. The volume of the membrane suspension is adjusted with the membrane buffer (50 mM Tris-HCl containing 0.1% BSA and 0.1 mM PMSF) to give 3.0 mg/mL (or as appropriate) of protein. The membranes are aliquoted and stored at −70° C. C. Radioligand Binding Assay: In wells of a 96-well format microtiter plate, is added 90, 110 or 130 μL (to make up a final volume of 200 μL) of assay buffer containing 50 mM of Tris-HCl (pH 7.4), […], 1 mg % aprotinin, 1 mg % leupeptin, 2 mg % 1,10-phenanthroline, 10 mg % trypsin inhibitor, and 0.1 mM PMSF. The inhibitors are added on the day of the experiment. The components are mixed at room temperature, and then kept in ice bath following adjustment of the pH to 7.4. […] For oxytocin and other peptide ligands, 20 μL of 50% DMSO is added and the assay buffer volume is adjusted accordingly. To each well is added 50 μL of frozen membrane suspension thawed immediately prior to use and diluted in assay buffer to the required concentration (equivalent to 25 to 50 μg of protein/well as needed). 20 μL of 8 nM [^3H]oxytocin in the assay buffer, prepared just before use is added and incubated at room temperature for 60 min. shaking the plate on a mechanical shaker for the first 15 min. The incubation is stopped by rapid filtration of the plate contents followed by washing with ice-cold buffer (50 mM Tris-HCl, pH 7.4) using a cell harvester (Tomtek and Printed filtermat-B filter paper). The filter paper is thoroughly dried (7–12 min. in a microwave oven) and impregnated with MeltiLex B/H melt-on scintillation wax sheets and the radioactivity counted in a betaplate scintillation counter.
Binding data is either reported as percent inhibition at a certain concentration or if an IC50 was calculated, as a nanomolar concentration.

Compound | inhibition at 0.1 µM | OT % inhibition @ 100% nM
COc1cccc(-c2cc(OC)c(C(=O)N3Cc4ccc(C(=O)N5CCN(CCN6CCOCC6)CC5)n4Cc4ccccc43)cc2Cl)c1 [Example 212, {10-[(6-Chloro-3,3′-dimethoxy[1,1′-biphenyl]-4-yl)carbonyl]-10,11-dihydro-5H-pyrrolo[2,1-c][1,4]benzodiazepin-3-yl}{4-[2-(4-morpholinyl)ethyl]-1-piperazinyi}methanone] |  | 95%
Cc1ccccc1-c1ccc(C(=O)N2Cc3ccc(C(=O)N4CCC[C@H]4CN4CCCC4)n3Cc3ccccc32)cc1C [Example 260, {10-[(2,2′-Dimethyl[1,1′-biphenyl]-4-yl)carbonyl]-10,11-dihydro-5H-pyrrolo[2,1-c][1,4]benzodiazepin-3-yl}[(2S)-2-(1-pyrrolidinylmethyl)pyrrolidinyl]methanone] |  | 102%
COc1cc(-c2ccccc2C)c(Cl)cc1C(=O)N1Cc2ccc(C(=O)N3CCC[C@H]3CN3CCCC3)n2Cc2ccccc21 [Example 267, {10-[(6-Chloro-3-methoxy-2′-methyl[1,1′-biphenyl]-4-yl)carbonyl]-10,11-dihydro-5H-pyrrolo[2,1-c][1,4]benzodiazepin-3-yl}[(2S)-2-(1-pyrrolidinylmethyl)pyrrolidinyl]methanone] |  | 93%
COc1cc(C(=O)N2Cc3ccc(C(=O)N4CCC[C@H]4CN4CCCC4)n3Cc3ccccc32)ccc1-c1cccc2ccccc12 [Example 262, {10-[3-Methoxy-4-(1-naphthyl)benzoyl]-10,11-dihydro-5H-pyrrolo[2,1-c][1,4]benzodiazepin-3-yl}[(2S)-2-(1-pyrrolidinylmethyl)pyrrolidinyl]methanone] |  | 76%
Cc1cccc(N2CCN(C(=O)c3ccc4n3Cc3ccccc3N(C(=O)c3ccc(-c5ccccc5C(F)(F)F)c(C)c3)C4)CC2C)c1 (centres unmarked) [Example 5, [3-Methyl-4-(3-methyl-phenyl)-piperazin-1-yl]-[10-(2-methyl-2′-trifluoromethyl-[1,1′-biphenyl]-4-yl)carbonyl]-10,11-dihydro-5H-pyrrolo[2,1-c][1,4]benzodiazepin-3-yl-methanone] |  | 24%
COc1ccccc1-c1ccc(C(=O)N2Cc3ccc(C(=O)N4CC[C@@H](N(C)C)C4)n3Cc3ccccc32)cc1OC [Example 282, {10-[(2,2′-Dimethoxy[1,1′-biphenyl]-4-yl)carbonyl]-10,11-dihydro-5H-pyrrolo[2,1-c][1,4]benzodiazepin-3-yl][(3R)-3-(dimethylamino)pyrrolidinyl]methanone] |  | 84%
Cc1cc(C(=O)N2Cc3ccc(C(=O)N(CCCN(C)C)CCCN(C)C)n3Cc3ccccc32)ccc1-c1ccccc1C(F)(F)F [Example 3, 10-[(2-Methyl-2′-trifluoromethyl-[1,1′-biphenyl]-4-yl)-carbonyl]-10,11-dihydro-5H-pyrrolo[2,1-c][1,4]benzodiazepine-3-carboxylic acid bis-(3-dimethylamino-propyl)-amide] | 37% | 
Cc1cc(C(=O)N2Cc3ccc(C(=O)NCCCN(C)C)n3Cc3ccccc32)ccc1-c1ccccc1C(F)(F)F [Example 84, N-[3-(Dimethylamino)propyl]-10-{[2-methyl-2′-(trifluoromethyl)[1,1′-biphenyl]-4-yl]carbonyl}-10,11-dihydro-5H-pyrrolo[2,1-c][1 .4]benzodiazepine-3-carboxamide] |  | 48%
COc1cccc(-c2ccc(C(=O)N3Cc4ccc(C(=O)N5CC[C@@H](N(C)C)C5)n4Cc4ccccc43)cc2OC)c1 [Example 283, {10-[(2,3′-Dimethoxy[1,1′-biphenyl]-4-yl)carbonyl]-10,11-dihydro-5H-pyrrolo[2,1-c][1,4]benzodiazepin-3-yl}[(3R)-3-(dimethylamino)pyrrolidinyl]methanone] |  | 91%

Now from value to compound, other results behind:

inhibition at 0.1 µM | Compound | OT % inhibition @ 100% nM
95% | Cc1ccccc1-c1ccc(C(=O)N2Cc3ccc(C(=O)N4CCC(N5CCCC5)CC4)n3Cc3ccccc32)cc1C [Example 138, {10-[(2,2′-Dimethyl[1,1′-biphenyl]-4-yl)carbonyl]-10,11-dihydro-5H-pyrrolo[2,1-c][1,4]benzodiazepin-3-yl}[4-(1-pyrrolidinyl)-1-piperidinyl]methanone] | 
36% | COc1cccc(-c2ccc(C(=O)N3Cc4ccc(C(=O)NCCCn5ccnc5)n4Cc4ccccc43)cc2C)c1 [Example 125, N-[3-(1H-Imidazol-1-yl)propyl]-10-[(3′-methoxy-2-methyl[1,1′-biphenyl]-4-yl)carbonyl]-10,11-dihydro-5H-pyrrolo[2,1-c][1,4]benzodiazepine-3-carboxamide] | 
33% | O=C(c1ccc2n1Cc1ccccc1N(C(=O)c1ccc(-c3cccc4ccccc34)cc1Cl)C2)N1CCC(N2CCCC2)CC1 [Example 147, {10-[2-Chloro-4-(1-naphthyl)benzoyl]-10,11-dihydro-5H-pyrrolo[2,1-c][1,4]benzodiazepin-3-yl}[4-(1-pyrrolidinyl)-1-piperidinyl]methanone] | 
29% | Cc1ccccc1-c1ccc(C(=O)N2Cc3ccc(C(=O)NCCCn4ccnc4)n3Cc3ccccc32)cc1 [Example 127, N-[3-(1H-Imidazol-1-yl)propyl]-10-[(2′-methyl[1,1′-biphenyl]-4-yl)carbonyl]-10,11-dihydro-5H-pyrrolo[2,1-c][1,4]benzodiazepine-3-carboxamide] | 
46% | COc1cccc(-c2cc(OC)c(C(=O)N3Cc4ccc(C(=O)NCCCn5ccnc5)n4Cc4ccccc43)cc2Cl)c1 [Example 130, 10-[(6-Chloro-3,3′-dimethoxy[1,1′-biphenyl]-4-yl)carbonyl]-N-[3-(1H-imidazol-1-yl)propyl]-10,11-dihydro-5H-pyrrolo[2,1-c][1,4]benzodiazepine-3-carboxamide] | 
76% | COc1cccc(-c2ccc(C(=O)N3Cc4ccc(C(=O)N5CCC(N6CCCC6)CC5)n4Cc4ccccc43)cc2C)c1 [Example 139, {10-[(3′-Methoxy-2-methyl[1,1′-biphenyl]-4-yl)carbonyl]-10,11-dihydro-5H-pyrrolo[2,1-c][1,4]benzodiazepin-3-yl}[4-(1-pyrrolidinyl)-1-piperidinyl]methanone] | 
15% | O=C(NCCCn1ccnc1)c1ccc2n1Cc1ccccc1N(C(=O)c1ccc(-c3cccc4ccccc34)cc1Cl)C2 [Example 134, 10-[2-Chloro-4-(1-naphthyl)benzoyl]-N-[3-(1H-imidazol-1-yl)propyl]-10,11-dihydro-5H-pyrrolo[2,1-c][1,4]benzodiazepine-3-carboxamide] | 
97% | Cc1ccccc1-c1ccc(C(=O)N2Cc3ccc(C(=O)N4CCC(N5CCCCC5)CC4)n3Cc3ccccc32)cc1C [Example 113, {10-[(2-Methyl-2′-methyl[1,1′-biphenyl]-4-yl)carbonyl]-10,11-dihydro-5H-pyrrolo[2,1-c][1,4]benzodiazepin-3-yl}[4-(1-piperidinyl)-1-piperidinyl]methanone] | 
